For 18 compounds, IC50 results are on record in BindingDB's records for doi:10.1021/jm00017a004 (Centre De Recherche Pierre Fabre, 1995).

The test has as its target Squalene monooxygenase (Sus scrofa). The test can be described thus: In vitro inhibitory activity against pig liver microsomal squalene epoxidase. On the technique in general: Microsomes from liver hold many membrane-bound enzymes, among them those of drug oxidation.
As to `CCN(C/C=C/C#CC(C)(C)C)Cc1cccc(OC[Si](C)(C)c2ccc(Cl)cc2)c1` [(3-{[(4-Chloro-phenyl)-dimethyl-silanyl]-methoxy}-benzyl)-((E)-6,6-dimethyl-hept-2-en-4-ynyl)-ethyl-amine], the concentration for half-maximal inhibition (IC50) (commonly the concentration at which inhibition is half-maximal) worked out at 400 nM.

Turning to `CCN(C/C=C/C#CC(C)(C)C)Cc1cccc(OC[Si](C)(C)C2CCCCC2)c1` [{3-[(Cyclohexyl-dimethyl-silanyl)-methoxy]-benzyl}-((E)-6,6-dimethyl-hept-2-en-4-ynyl)-ethyl-amine], 20000 nM corresponded to half-maximal inhibition (IC50).

`CCN(C/C=C/C#CC(C)(C)C)Cc1cccc(OC[Si](C)(C)c2ccc(OC)cc2)c1` [((E)-6,6-Dimethyl-hept-2-en-4-ynyl)-ethyl-(3-{[(4-methoxy-phenyl)-dimethyl-silanyl]-methoxy}-benzyl)-amine]: it took 870 nM to reach half-maximal inhibition (IC50).

In turn, `CCN(C/C=C/C#CC(C)(C)C)Cc1cccc(OC[Si](C)(C)c2cccc(C)c2)c1` [((E)-6,6-Dimethyl-hept-2-en-4-ynyl)-{3-[(dimethyl-m-tolyl-silanyl)-methoxy]-benzyl}-ethyl-amine] gave an IC50 of 3000 nM.

Consider `CCN(C/C=C/C#CC(C)(C)C)Cc1cccc(OC[Si](C)(C)c2ccc(F)cc2)c1` [((E)-6,6-Dimethyl-hept-2-en-4-ynyl)-ethyl-(3-{[(4-fluoro-phenyl)-dimethyl-silanyl]-methoxy}-benzyl)-amine], for which the IC50 worked out at 60 nM.

As for `CCN(C/C=C/C#CC(C)(C)C)Cc1cccc(OC[Si](C)(C)c2ccc(O)cc2)c1` [4-[(3-{[((E)-6,6-Dimethyl-hept-2-en-4-ynyl)-ethyl-amino]-methyl}-phenoxymethyl)-dimethyl-silanyl]-phenol], the IC50 was 8000 nM.

In turn, `C=Cc1ccc([Si](C)(C)COc2cccc(CN(CC)C/C=C/C#CC(C)(C)C)c2)cc1` [((E)-6,6-Dimethyl-hept-2-en-4-ynyl)-(3-{[dimethyl-(4-vinyl-phenyl)-silanyl]-methoxy}-benzyl)-ethyl-amine] registered an IC50 of 70 nM.

`CCN(C/C=C/C#CC(C)(C)C)Cc1cccc(OC[Si](C)(C)c2ccccc2C(F)(F)F)c1` [((E)-6,6-Dimethyl-hept-2-en-4-ynyl)-(3-{[dimethyl-(2-trifluoromethyl-phenyl)-silanyl]-methoxy}-benzyl)-ethyl-amine] showed a half-inhibitory concentration (IC50) of 70 nM.

Turning to `CCN(C/C=C/C#CC(C)(C)C)Cc1cccc(OC[Si](C)(C)Cc2ccccc2)c1` [{3-[(Benzyl-dimethyl-silanyl)-methoxy]-benzyl}-((E)-6,6-dimethyl-hept-2-en-4-ynyl)-ethyl-amine], inhibition was half-maximal at 130 nM (IC50).

In the case of `CCN(C/C=C/C#CC(C)(C)C)Cc1cccc(OC[Si](C)(C)c2ccc(C)cc2)c1` [((E)-6,6-Dimethyl-hept-2-en-4-ynyl)-{3-[(dimethyl-p-tolyl-silanyl)-methoxy]-benzyl}-ethyl-amine], the IC50 is 120 nM.

The compound `CCN(C/C=C/C#CC(C)(C)C)Cc1cccc(OC[Si](C)(C)CCc2ccccc2)c1` [((E)-6,6-Dimethyl-hept-2-en-4-ynyl)-{3-[(dimethyl-phenethyl-silanyl)-methoxy]-benzyl}-ethyl-amine] had an IC50 greater than 10000 nM.

For the compound `CCN(C/C=C/C#CC(C)(C)C)Cc1cccc(OC[Si](C)(C)c2ccc(C(=O)C(F)(F)F)cc2)c1` [1-{4-[(3-{[((E)-6,6-Dimethyl-hept-2-en-4-ynyl)-ethyl-amino]-methyl}-phenoxymethyl)-dimethyl-silanyl]-phenyl}-2,2,2-trifluoro-ethanone], the IC50 was 5000 nM.

In turn, `CCN(C/C=C/C#CC(C)(C)C)Cc1cccc(OC[Si](C)(C)c2ccccc2-c2ccsc2)c1` [((E)-6,6-Dimethyl-hept-2-en-4-ynyl)-(3-{[dimethyl-(2-thiophen-3-yl-phenyl)-silanyl]-methoxy}-benzyl)-ethyl-amine] yielded an IC50 of 10000 nM.

As for `CCN(C/C=C/C#CC(C)(C)C)Cc1cccc(OC[Si](C)(C)c2ccc(C=O)cc2)c1` [4-[(3-{[((E)-6,6-Dimethyl-hept-2-en-4-ynyl)-ethyl-amino]-methyl}-phenoxymethyl)-dimethyl-silanyl]-benzaldehyde], 100 nM corresponded to half-maximal inhibition (IC50).

Regarding `CCN(C/C=C/C#CC(C)(C)C)Cc1cccc(OC[Si](C)(C)c2ccc(C(N)=O)cc2)c1` [4-[(3-{[((E)-6,6-Dimethyl-hept-2-en-4-ynyl)-ethyl-amino]-methyl}-phenoxymethyl)-dimethyl-silanyl]-benzamide], half-maximal inhibition (IC50) was put at 5000 nM.

Consider `CCN(C/C=C/C#CC(C)(C)C)Cc1cccc(OC[Si](C)(C)c2ccc(Br)cc2)c1` [(3-{[(4-Bromo-phenyl)-dimethyl-silanyl]-methoxy}-benzyl)-((E)-6,6-dimethyl-hept-2-en-4-ynyl)-ethyl-amine], for which the IC50 turned out to be 210 nM.

On to `CCN(CC#CC#CC(C)(C)OC)Cc1cccc(OC[Si](C)(C)c2ccccc2C)c1` [{3-[(Dimethyl-o-tolyl-silanyl)-methoxy]-benzyl}-ethyl-(6-methoxy-6-methyl-hepta-2,4-diynyl)-amine], for which the midpoint of inhibition, the IC50, lay at 70 nM.

Consider `CCN(C/C=C/C#CC(C)(C)C)Cc1cccc(OC[Si](C)(C)c2ccc(S)cc2)c1` [4-[(3-{[((E)-6,6-Dimethyl-hept-2-en-4-ynyl)-ethyl-amino]-methyl}-phenoxymethyl)-dimethyl-silanyl]-benzenethiol], for which it took 8000 nM to reach half-maximal inhibition (IC50).
